We go through 1 molecule from patent publication US7592336B2, “Hepatitis C virus inhibitors” (Bristol-Myers Squibb Company, priority 2005, dated 2009).

The target in this assay is T1, HCV NS3/4A protease complex, H77 strain (Hepatitis C virus genotype 1a, UniProt P27958, C1454S/C1711G).
T1 construct: DNA encoding the recombinant HCV NS3/4A protease complex (amino acids 1027 to 1711) for these strains; inferred from pET21b vector and Ni-NTA purification; made in house; host or cells: Escherichia coli BL21 (DE3), pET21b
As to the kind of experiment: FRET peptide assay to monitor HCV NS3/4A proteolytic activity (H77 strain). The assay is classed as biochemical, HCV genotype 1a. The following applies: read-out: IC50 against NS3/4A H77 strain. From the text:
HCV NS3 protease complexes, derived from the BMS strain, H77 strain or J4L6S strain, were generated, as described below. These purified recombinant proteins were generated for use in a homogeneous assay (see below) to provide an indication of how effective compounds of the present disclosure would be in inhibiting HCV NS3 proteolytic activity.
The H77 and J4L6S strains were used for production of recombinant NS3/4A protease complexes. DNA encoding the recombinant HCV NS3/4A protease complex (amino acids 1027 to 1711) for these strains were manipulated as described by P. Gallinari et al. (see Gallinari P, Paolini C, Brennan D, Nardi C, Steinkuhler C, De Francesco R. Biochemistry. 38(17):5620-32, (1999)). Briefly, a three-lysine solubilizing tail was added at the 3′-end of the NS4A coding region. The cysteine in the P1 position of the NS4A-NS4B cleavage site (amino acid 1711) was changed to a glycine to avoid the proteolytic cleavage of the lysine tag. Furthermore, a cysteine to serine mutation was introduced by PCR at amino acid position 1454 to prevent the autolytic cleavage in the NS3 helicase domain. […]

T1 sequence (P27958 1027-1711 C1454S/C1711G, one chain of several): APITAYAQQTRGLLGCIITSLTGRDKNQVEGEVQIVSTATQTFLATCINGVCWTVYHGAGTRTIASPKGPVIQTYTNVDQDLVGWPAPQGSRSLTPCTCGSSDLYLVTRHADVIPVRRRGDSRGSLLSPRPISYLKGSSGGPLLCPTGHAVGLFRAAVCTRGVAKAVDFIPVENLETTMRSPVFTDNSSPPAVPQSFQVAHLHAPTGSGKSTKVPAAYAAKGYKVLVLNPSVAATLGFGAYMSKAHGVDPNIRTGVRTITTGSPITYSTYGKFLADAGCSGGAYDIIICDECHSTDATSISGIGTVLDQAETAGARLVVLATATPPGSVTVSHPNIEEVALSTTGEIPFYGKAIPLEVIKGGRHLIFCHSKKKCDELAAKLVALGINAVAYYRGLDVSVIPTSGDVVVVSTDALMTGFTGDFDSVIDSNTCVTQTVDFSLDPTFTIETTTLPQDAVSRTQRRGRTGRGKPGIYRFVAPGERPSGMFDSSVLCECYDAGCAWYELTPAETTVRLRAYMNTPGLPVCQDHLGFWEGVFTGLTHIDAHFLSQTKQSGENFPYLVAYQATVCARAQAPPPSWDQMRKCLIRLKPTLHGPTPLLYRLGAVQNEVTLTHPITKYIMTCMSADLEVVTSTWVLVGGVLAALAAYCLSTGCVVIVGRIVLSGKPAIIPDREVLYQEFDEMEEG

For `C=C[C@@H]1C[C@]1(NC(=O)[C@@H]1C[C@@](O)(c2ccc(-c3ccccc3)cc2)CN1C(=O)[C@@H](NC(=O)OC(C)(C)C)C(C)(C)C)C(=O)NS(=O)(=O)C1CC1` [Compound 3], the IC50 was determined as 1.6 nM.
